Measured values taken from PMC9200736, “Complete biosynthetic pathway to the antidiabetic drug acarbose” (Nature Communications, 2022).

Tests used:
[1] = test system: O=P(O)(O)O[C@H]1C=C(CO)[C@@H](O)[C@H](O)[C@H]1O; assay: purified protein; settings: GTP 1 mM, MgCl2 1 mM, Tris-HCl pH 7.5, 30 °C, AcbR 1.0 µM
AcbK = biological target: T1, AcbK (Actinoplanes sp. SE50/110, UniProt Q8RMD4); assay: preparative phosphorylation, conversion by PK/LDH assay; type: biochemical; settings: ATP 6 mM, MgCl2 5 mM, Tris-HCl pH 7.5, 30 °C, 6 h
T1 construct: recombinant from pET28b in E. coli BL21(DE3)/pLysS, Ni-NTA purified
T1 sequence (Q8RMD4 whole entry): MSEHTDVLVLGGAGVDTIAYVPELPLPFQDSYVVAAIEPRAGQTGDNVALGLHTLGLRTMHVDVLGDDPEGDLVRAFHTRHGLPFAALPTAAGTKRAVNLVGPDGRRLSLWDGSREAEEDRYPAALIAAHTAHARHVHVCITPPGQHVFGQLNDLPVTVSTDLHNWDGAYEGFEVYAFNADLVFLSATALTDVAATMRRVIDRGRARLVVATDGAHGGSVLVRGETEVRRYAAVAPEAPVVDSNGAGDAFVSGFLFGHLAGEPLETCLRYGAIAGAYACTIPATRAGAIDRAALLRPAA

AcbS = biological target: T2, AcbS (Actinoplanes sp. SE50/110, UniProt Q27GS2); assay: LC-QTOF/MS and MS/MS of product acarbose; type: biochemical; settings: GDP-V generated in situ by AcbR from V1P and GTP; 4-aminoDGG […], MgCl2 […], pH […] °C, […] h
T2 construct: recombinant from pRSET-B in E. coli BL21(DE3)/pLysS, Ni-NTA purified
T2 sequence (Q27GS2 1-709): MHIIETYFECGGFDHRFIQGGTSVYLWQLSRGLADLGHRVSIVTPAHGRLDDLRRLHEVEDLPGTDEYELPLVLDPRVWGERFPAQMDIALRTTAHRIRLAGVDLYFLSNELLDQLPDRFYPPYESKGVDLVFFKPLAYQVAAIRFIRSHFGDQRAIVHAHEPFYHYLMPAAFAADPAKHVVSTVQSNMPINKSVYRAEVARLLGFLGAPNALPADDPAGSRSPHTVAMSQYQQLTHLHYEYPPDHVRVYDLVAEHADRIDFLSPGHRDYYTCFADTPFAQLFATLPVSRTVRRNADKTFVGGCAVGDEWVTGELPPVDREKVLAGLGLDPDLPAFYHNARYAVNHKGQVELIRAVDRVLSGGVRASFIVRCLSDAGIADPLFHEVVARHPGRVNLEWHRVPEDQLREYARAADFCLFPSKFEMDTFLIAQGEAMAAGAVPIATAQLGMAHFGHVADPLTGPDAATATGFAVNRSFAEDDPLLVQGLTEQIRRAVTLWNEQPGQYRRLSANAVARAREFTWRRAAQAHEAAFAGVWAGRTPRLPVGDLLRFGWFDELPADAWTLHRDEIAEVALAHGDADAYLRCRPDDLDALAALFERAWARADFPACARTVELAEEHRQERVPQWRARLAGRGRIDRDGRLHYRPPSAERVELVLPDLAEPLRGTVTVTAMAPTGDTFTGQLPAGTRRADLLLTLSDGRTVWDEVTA

ValC = biological target: T3, ValC (Streptomyces hygroscopicus, UniProt Q3T6E2); assay: preparative phosphorylation, conversion by PK/LDH assay; type: biochemical; settings: ATP 6 mM, MgCl2 5 mM, Tris-HCl pH 7.5, 30 °C, 6 h
T3 construct: recombinant from pRSETB-valC in E. coli BL21(DE3)/pLysS, Ni-NTA purified
T3 sequence (Q3T6E2 1-351): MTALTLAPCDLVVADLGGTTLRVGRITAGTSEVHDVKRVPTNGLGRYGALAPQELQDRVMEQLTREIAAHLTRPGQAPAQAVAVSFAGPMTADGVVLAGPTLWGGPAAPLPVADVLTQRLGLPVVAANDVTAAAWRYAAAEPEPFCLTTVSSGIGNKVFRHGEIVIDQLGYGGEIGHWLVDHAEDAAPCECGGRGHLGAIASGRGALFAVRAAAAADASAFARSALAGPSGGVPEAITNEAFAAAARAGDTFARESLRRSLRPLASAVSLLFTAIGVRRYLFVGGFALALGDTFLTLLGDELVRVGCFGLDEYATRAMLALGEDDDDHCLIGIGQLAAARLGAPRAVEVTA

AcbU = biological target: T4, AcbU (Actinoplanes sp. SE50/110, UniProt Q27GS3); assay: PK/LDH coupled assay, A340; LC-MS of product; type: biochemical; settings: ATP […], MgCl2 […], Tris-HCl pH […] °C; substrate […]
T4 construct: recombinant from pRSET-B in E. coli BL21(DE3)/pLysS, Ni-NTA purified
T4 sequence (Q27GS3 1-492): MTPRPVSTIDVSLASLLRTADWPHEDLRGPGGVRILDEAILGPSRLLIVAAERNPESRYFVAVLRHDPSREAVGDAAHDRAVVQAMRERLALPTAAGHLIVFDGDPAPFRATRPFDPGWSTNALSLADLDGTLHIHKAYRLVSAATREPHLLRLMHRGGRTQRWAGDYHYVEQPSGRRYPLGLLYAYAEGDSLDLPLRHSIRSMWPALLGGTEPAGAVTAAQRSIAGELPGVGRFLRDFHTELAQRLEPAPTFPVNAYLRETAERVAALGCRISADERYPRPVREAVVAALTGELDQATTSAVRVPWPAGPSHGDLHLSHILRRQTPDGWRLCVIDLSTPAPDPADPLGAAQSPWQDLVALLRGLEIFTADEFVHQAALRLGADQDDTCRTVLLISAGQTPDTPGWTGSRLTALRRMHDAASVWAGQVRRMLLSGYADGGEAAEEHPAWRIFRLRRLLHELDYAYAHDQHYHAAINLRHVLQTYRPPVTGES

[2] = test system: O=P(O)(O)OCC1=C[C@H](OP(=O)(O)O)[C@H](O)[C@@H](O)[C@@H]1O; assay: purified protein; settings: Tris-HCl 20 mM pH 7.5, 30 °C, AcbJ 1.0 µM

For AcbR (Actinoplanes sp. SE50/110), which Km [1] is on record?
The Km was 412 ± 83 µM.

And the kcat [1]?
The kcat was 0.233 ± 0.017 s⁻¹.

Which “preparative phosphorylation, conversion by PK/LDH assay” value (AcbK) does the source give for `C[C@H]1O[C@H](O[C@H]2[C@H](O)[C@@H](O)[C@@H](O[C@H]3[C@H](O)[C@@H](O)C(O)O[C@@H]3CO)O[C@@H]2CO)[C@H](O)[C@@H](O)[C@@H]1N[C@H]1C=C(CO)[C@@H](O)[C@H](O)[C@H]1O` (stereo partly drawn) [compound 1, acarbose] here?
Its value is “prepared enzymatically from acarbose and ATP using the acarbose kinase AcbK”.

`Nc1nc2c(ncn2[C@@H]2O[C@H](COP(=O)(O)OP(=O)(O)O[C@H]3C=C(CO)[C@@H](O)[C@H](O)[C@H]3O)[C@@H](O)[C@H]2O)c(=O)[nH]1` [compound 16, GDP-V] was tested. Which “LC-QTOF/MS and MS/MS of product acarbose” value (AcbS) did it give?
Its value is “incubation of recombinant AcbS with GDP-V (generated in situ”.

What does the source list for `OCC1=C[C@H](O)[C@H](O)[C@@H](O)[C@@H]1O` [V]?
preparative phosphorylation, conversion by PK/LDH assay (ValC): phosphorylation of synthetically prepared valienol using the cyclitol kinase ValC; PK/LDH coupled assay, A340; LC-MS of product (AcbU): AcbU can also phosphorylate valienol (V)

For `O=P(O)(O)OCC1=C[C@H](O)[C@H](O)[C@@H](O)[C@@H]1O` [compound 12, V7P], which “PK/LDH coupled assay, A340; LC-MS of product” value (AcbU) is on record?
The value was “V7P is a preferred substrate for AcbU to produce V1,7PP”.

For AcbJ (Actinoplanes sp. SE50/110), which Km [2] is on record?
The Km was 817 ± 168 µM.

And the kcat [2]?
Its kcat is 0.367 ± 0.067 s⁻¹.
